Reference: PubChem BioAssay AID2060899 (Molecular Pharmacology Branch, DTP, NCI, 2025)

System: 565726-208-R1-J5-PDC complex spheroids, growth inhibition
Assay: Anticancer human tumor 565726-208-R1-J5-PDC patient-derived pancreatic adenocarcinoma cell line growth inhibition [RAS]
Settings: for IC50: curve of first compound; for viability, T/C: stronger effect = lower value
Procedure, shortened: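 Agents were tested in combination matrices in half-log decrements from a top concentration at or near clinical Cmax (10 microM if undetermined). Targets were multi-cell spheroids of tumour lines plus HUVEC and MSC stromal cells.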
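Also: spheroids exposed to compounds for seven days before readout.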
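For viability, T/C in this document: 100% = DMSO vehicle control viability.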

In the case of `CCc1c2c(nc3ccc(O)cc13)-c1cc3c(c(=O)n1C2)COC(=O)[C@]3(O)CC` + CCn1c(-c2cc(N3CCN(C)CC3)cnc2C(C)OC)c2c3cc(ccc31)-c1csc(n1)CC(NC(=O)C1CC1C)C(=O)N1CCCC(N1)C(=O)OCC(C)(C)C2, the IC50 (second compound 0.000949 µM) is reported as 1.36 nM, the IC50 (second compound 0.003 µM) is reported as under 0.949 nM and the IC50 (second compound 0.00949 µM) is reported as under 0.949 nM. For the same molecule, the IC50 (second compound 0.03 µM) was under 0.949 nM, the IC50 (second compound 0.0949 µM) was under 0.949 nM and the IC50 (second compound 0.3 µM) was under 0.949 nM. For the same molecule, the viability, T/C (second compound 0.000949 µM, first compound 0.000949 µM) was 58%, the viability, T/C (second compound 0.000949 µM, first compound 0.003 µM) was 32.1% and the viability, T/C (second compound 0.000949 µM, first compound 0.00949 µM) was 21.2%. For the same molecule, the viability, T/C (second compound 0.000949 µM, first compound 0.03 µM) was 16.2%, the viability, T/C (second compound 0.000949 µM, first compound 0.0949 µM) was 9.45% and the viability, T/C (second compound 0.000949 µM, first compound 0.3 µM) was 5.7%. The viability, T/C (second compound 0.003 µM, first compound 0.000949 µM) was 47.9%, the viability, T/C (second compound 0.003 µM, first compound 0.003 µM) was 32.1% and the viability, T/C (second compound 0.003 µM, first compound 0.00949 µM) was 25.3%. For the same molecule, the viability, T/C (second compound 0.003 µM, first compound 0.03 µM) was 17.7%, the viability, T/C (second compound 0.003 µM, first compound 0.0949 µM) was 12.1% and the viability, T/C (second compound 0.003 µM, first compound 0.3 µM) was 6.82%. The viability, T/C (second compound 0.00949 µM, first compound 0.000949 µM) was 36.1%, the viability, T/C (second compound 0.00949 µM, first compound 0.003 µM) was 30% and the viability, T/C (second compound 0.00949 µM, first compound 0.00949 µM) was 21.6%. For the same molecule, the viability, T/C (second compound 0.00949 µM, first compound 0.03 µM) was 16%, the viability, T/C (second compound 0.00949 µM, first compound 0.0949 µM) was 12.1% and the viability, T/C (second compound 0.00949 µM, first compound 0.3 µM) was 6.89%. The viability, T/C (second compound 0.03 µM, first compound 0.000949 µM) was 27.9%, the viability, T/C (second compound 0.03 µM, first compound 0.003 µM) was 24.1% and the viability, T/C (second compound 0.03 µM, first compound 0.00949 µM) was 20.7%. It also gave a viability, T/C (second compound 0.03 µM, first compound 0.03 µM) of 15.9%, a viability, T/C (second compound 0.03 µM, first compound 0.0949 µM) of 11.9% and a viability, T/C (second compound 0.03 µM, first compound 0.3 µM) of 6.36%. For the same molecule, the viability, T/C (second compound 0.0949 µM, first compound 0.000949 µM) was 22.6%, the viability, T/C (second compound 0.0949 µM, first compound 0.003 µM) was 23.4% and the viability, T/C (second compound 0.0949 µM, first compound 0.00949 µM) was 18.6%. The viability, T/C (second compound 0.0949 µM, first compound 0.03 µM) was 13.6%, the viability, T/C (second compound 0.0949 µM, first compound 0.0949 µM) was 10.4% and the viability, T/C (second compound 0.0949 µM, first compound 0.3 µM) was 6.38%. For the same molecule, the viability, T/C (second compound 0.3 µM, first compound 0.000949 µM) was 21.4%, the viability, T/C (second compound 0.3 µM, first compound 0.003 µM) was 20.8% and the viability, T/C (second compound 0.3 µM, first compound 0.00949 µM) was 15.6%. The viability, T/C (second compound 0.3 µM, first compound 0.03 µM) was 14.6%, the viability, T/C (second compound 0.3 µM, first compound 0.0949 µM) was 10.7% and the viability, T/C (second compound 0.3 µM, first compound 0.3 µM) was 5.7%.

In the case of `Nc1ccn(C2OC(CO)C(O)C2(F)F)c(=O)n1` (centres undefined) + CCn1c(-c2cc(N3CCN(C)CC3)cnc2C(C)OC)c2c3cc(ccc31)-c1csc(n1)CC(NC(=O)C1CC1C)C(=O)N1CCCC(N1)C(=O)OCC(C)(C)C2, the IC50 (second compound 0.000949 µM) is reported as 21.9 nM, the IC50 (second compound 0.003 µM) is reported as 7.2 nM and the IC50 (second compound 0.00949 µM) is reported as under 3.16 nM. For the same molecule, the IC50 (second compound 0.03 µM) was under 3.16 nM, the IC50 (second compound 0.0949 µM) was under 3.16 nM and the IC50 (second compound 0.3 µM) was under 3.16 nM. For the same molecule, the viability, T/C (second compound 0.000949 µM, first compound 0.00316 µM) was 63.3%, the viability, T/C (second compound 0.000949 µM, first compound 0.01 µM) was 54.7% and the viability, T/C (second compound 0.000949 µM, first compound 0.0316 µM) was 49.9%. The viability, T/C (second compound 0.000949 µM, first compound 0.1 µM) was 34.4%, the viability, T/C (second compound 0.000949 µM, first compound 0.316 µM) was 35% and the viability, T/C (second compound 0.000949 µM, first compound 1 µM) was 27.8%. For the same molecule, the viability, T/C (second compound 0.003 µM, first compound 0.00316 µM) was 56.7%, the viability, T/C (second compound 0.003 µM, first compound 0.01 µM) was 46.3% and the viability, T/C (second compound 0.003 µM, first compound 0.0316 µM) was 40.4%. It also gave a viability, T/C (second compound 0.003 µM, first compound 0.1 µM) of 33.6%, a viability, T/C (second compound 0.003 µM, first compound 0.316 µM) of 33.1% and a viability, T/C (second compound 0.003 µM, first compound 1 µM) of 24.3%. The viability, T/C (second compound 0.00949 µM, first compound 0.00316 µM) was 38.8%, the viability, T/C (second compound 0.00949 µM, first compound 0.01 µM) was 42.1% and the viability, T/C (second compound 0.00949 µM, first compound 0.0316 µM) was 34.2%. The viability, T/C (second compound 0.00949 µM, first compound 0.1 µM) was 29.1%, the viability, T/C (second compound 0.00949 µM, first compound 0.316 µM) was 28.3% and the viability, T/C (second compound 0.00949 µM, first compound 1 µM) was 23.7%. For the same molecule, the viability, T/C (second compound 0.03 µM, first compound 0.00316 µM) was 28.9%, the viability, T/C (second compound 0.03 µM, first compound 0.01 µM) was 31.7% and the viability, T/C (second compound 0.03 µM, first compound 0.0316 µM) was 24.4%. For the same molecule, the viability, T/C (second compound 0.03 µM, first compound 0.1 µM) was 22.1%, the viability, T/C (second compound 0.03 µM, first compound 0.316 µM) was 24.1% and the viability, T/C (second compound 0.03 µM, first compound 1 µM) was 21.7%. It also gave a viability, T/C (second compound 0.0949 µM, first compound 0.00316 µM) of 25.4%, a viability, T/C (second compound 0.0949 µM, first compound 0.01 µM) of 26.9% and a viability, T/C (second compound 0.0949 µM, first compound 0.0316 µM) of 23.1%. For the same molecule, the viability, T/C (second compound 0.0949 µM, first compound 0.1 µM) was 21.1%, the viability, T/C (second compound 0.0949 µM, first compound 0.316 µM) was 19.1% and the viability, T/C (second compound 0.0949 µM, first compound 1 µM) was 18.9%. It also gave a viability, T/C (second compound 0.3 µM, first compound 0.00316 µM) of 22.3%, a viability, T/C (second compound 0.3 µM, first compound 0.01 µM) of 25.2% and a viability, T/C (second compound 0.3 µM, first compound 0.0316 µM) of 23.3%. The viability, T/C (second compound 0.3 µM, first compound 0.1 µM) was 20.9%, the viability, T/C (second compound 0.3 µM, first compound 0.316 µM) was 22.2% and the viability, T/C (second compound 0.3 µM, first compound 1 µM) was 19%.
